Experimental data from patent publication US20160106102A1, “KNOWN AND NEW HETEROCYCLIC COMPOUNDS AS PEST CONTROL AGENTS” (BAYER CROPSCIENCE AKTIENGESELLSCHAFT, priority 2013, published 2016).
Where two headings read alike, the source gives them in different places.

Key:
[1] = log P determination by LC-MS in the acidic range; format: physicochemical; settings: for log P (acid): LC-MS in the acidic range
Description: The LC-MS determination in the acidic range is effected at pH 2.7 using 0.1% aqueous formic acid and acetonitrile (contains 0.1% formic acid) as eluents, linear gradient from 10% acetonitrile to 95% acetonitrile. Alternatively, the determination is effected in the acidic range at pH 2.3 using 0.1% aqueous phosphoric acid and acetonitrile as eluents; linear gradient from 10% acetonitrile to 95% acetonitrile.

Myzus persicae [2] = test: Myzus persicae - sachet test; format: in vivo; settings: 100% = all animals killed
Method in brief: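 Active ingredient dissolved with 2% N-methylpyrrolidone and 2% diacetone alcohol, diluted in water, then pipetted into nutrient medium. Plate sealed and paired with a plate carrying green peach aphids. Kill in % scored after the set time (100% = all dead, 0% = none dead).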

Myzus persicae [3] = test: Myzus persicae - spray test; format: in vivo; settings: application rate of 500 g/ha, after 6 days, sprayed Chinese cabbage leaf discs infested by all stages, 100% = all aphids killed
Description: Myzus persicae—spray test Solvent: 78 parts by weight of acetone • • 1.5 parts by weight of dimethylformamide Emulsifier: 0.5 part by weight of alkylaryl polyglycol ether To produce an appropriate active ingredient formulation, 1 part by weight of active ingredient is mixed with the specified amounts of solvent and emulsifier, and the concentrate is diluted to the desired concentration with emulsifier-containing water. Discs of Chinese cabbage leaves (Brassica pekinensis) infested by all stages of the green peach aphid (Myzus persicae) are sprayed with an active ingredient formulation of the desired concentration. After 6 days, the efficacy in % is determined. 100% means that all the aphids have been killed; 0% means that no aphids have been killed.

[4] = application rate of 6 ppm in nutrient medium
[5] = application rate of 30 ppm in nutrient medium

## C#CCn1ccc(NC(=O)c2cccnc2)n1 [Compound I-1-54]
[1]
  log P (acid): 0.69
Myzus persicae [2]; [4]
  efficacy (kill in %): 100%
Myzus persicae [2]; [5]
  efficacy (kill in %): 100%
Myzus persicae [3]
  efficacy in %: 90%

## Cc1cc(NC(=O)c2cccnc2)nn1-c1cnccn1 [Compound I-1-55]
[1]
  log P (acid): 1.27
Myzus persicae [2]; [5]
  efficacy (kill in %): 100%
Myzus persicae [3]
  efficacy in %: 80%

## Cc1cc(NC(=O)c2cccnc2)nn1Cc1cccc(F)c1 [Compound I-1-60]
[1]
  log P (acid): 1.9
Myzus persicae [2]; [4]
  efficacy (kill in %): 100%
Myzus persicae [2]; [5]
  efficacy (kill in %): 100%
Myzus persicae [3]
  efficacy in %: 100%

## CCOC(=O)CN(C)C(=O)Cn1nc(NC(=O)c2cncc(F)c2)cc1C [Compound I-1-61]
[1]
  log P (acid): 1.35
[1]; values given in the synthesis examples and NMR lists
  HPLC-MS: log P: Compound No. I-1-61: HPLC-MS: logP = 1.35; mass (m/z): 378.1 (M + H)^+; 1H NMR (CD3CN) 1.21-1.28 (m,
Myzus persicae [2]; [5]
  efficacy (kill in %): 100%
Myzus persicae [3]
  efficacy in %: 80%

## O=C(Nc1ccn(-c2ncc(C(F)(F)F)cc2Cl)n1)c1cccnc1 [Compound I-1-63]
[1]
  log P (acid): 2.18
Myzus persicae [2]; [5]
  efficacy (kill in %): 100%
Myzus persicae [3]
  efficacy in %: 100%

## Cc1cc(NC(=O)c2cccnc2)nn1Cc1ccccc1F [Compound I-1-64]
[1]
  log P (acid): 1.82
Myzus persicae [2]; [4]
  efficacy (kill in %): 100%
Myzus persicae [2]; [5]
  efficacy (kill in %): 100%
Myzus persicae [3]
  efficacy in %: 90%

## O=C(Nc1ccn(C(CF)CF)n1)c1cccnc1 [Compound I-1-65]
[1]
  log P (acid): 0.84
Myzus persicae [2]; [4]
  efficacy (kill in %): 100%
Myzus persicae [2]; [5]
  efficacy (kill in %): 100%
Myzus persicae [3]
  efficacy in %: 90%

## Cc1c(NC(=O)c2cccnc2)nn(Cc2ncccn2)c1C [Compound I-1-123]
[1]
  log P (acid): 0.76
Myzus persicae [2]; [4]
  efficacy (kill in %): 100%
Myzus persicae [2]; [5]
  efficacy (kill in %): 100%
Myzus persicae [3]
  efficacy in %: 90%

## CNC(=O)Cn1nc(NC(=O)c2cccnc2)cc1C [Compound I-1-124]
[1]
  log P (acid): 0.29
Myzus persicae [2]; [4]
  efficacy (kill in %): 100%
Myzus persicae [2]; [5]
  efficacy (kill in %): 100%
Myzus persicae [3]
  efficacy in %: 90%

## COC(=O)n1nc(NC(=O)c2cccnc2)cc1C [Compound I-1-126]
[1]
  log P (acid): 1.08
Myzus persicae [2]; [4]
  efficacy (kill in %): 100%
Myzus persicae [2]; [5]
  efficacy (kill in %): 100%
Myzus persicae [3]
  efficacy in %: 90%

## Cc1cc(NC(=O)c2ccc[n+]([O-])c2)nn1Cc1ncccn1 [Compound I-1-128]
[1]
  log P (acid): 0.55
Myzus persicae [2]; [4]
  efficacy (kill in %): 100%
Myzus persicae [2]; [5]
  efficacy (kill in %): 100%
Myzus persicae [3]
  efficacy in %: 90%

## CCC(=O)n1nc(NC(=O)c2cccnc2)cc1C [Compound I-1-129]
[1]
  log P (acid): 1.56
Myzus persicae [2]; [4]
  efficacy (kill in %): 100%
Myzus persicae [2]; [5]
  efficacy (kill in %): 100%
Myzus persicae [3]
  efficacy in %: 90%

## Cc1cc(NC(=O)c2cccnc2)nn1CC(F)(F)F [Compound I-1-133]
[1]
  log P (acid): 1.32
Myzus persicae [2]; [4]
  efficacy (kill in %): 100%
Myzus persicae [2]; [5]
  efficacy (kill in %): 100%
Myzus persicae [3]
  efficacy in %: 90%

## O=C(Nc1cc(Br)n(Cc2ncccn2)n1)c1cccnc1 [Compound I-1-140, N-[5-Bromo-1-(pyrimidin-2-ylmethyl)-1H-pyrazol-3-yl]nicotinamide]
[1]; pH 2.7, LC-MS in the acidic range, read-out: log P (acid)
  chromatographic logP: 1.1
[1]; pH 2.7, values given in the synthesis examples and NMR lists, read-out: HPLC-MS: log P
  chromatographic logP: 1.1
Myzus persicae [2]; Myzus persicae, application rate of 6 ppm in nutrient medium, read-out: efficacy (kill in %)
  pest or weed control at 6 ppm: 100%
Myzus persicae [2]; Myzus persicae, application rate of 30 ppm in nutrient medium, read-out: efficacy (kill in %)
  pest or weed control at 30 ppm: 100%
Myzus persicae [3]; Myzus persicae, foliar, 144 h, read-out: efficacy in %
  pest or weed control at 500 g/ha: 90%

## Cc1cc(NC(=O)c2cccnc2)nn1Cn1nc(C)n(C)c1=O [Compound I-1-143]
[1]
  log P (acid): 0.72
Myzus persicae [2]; [4]
  efficacy (kill in %): 100%
Myzus persicae [2]; [5]
  efficacy (kill in %): 100%
Myzus persicae [3]
  efficacy in %: 90%

## COc1nn(Cn2nc(NC(=O)c3cccnc3)cc2C)c(=O)n1C1CC1 [Compound I-1-144]
[1]
  log P (acid): 1.27
Myzus persicae [2]; [4]
  efficacy (kill in %): 100%
Myzus persicae [2]; [5]
  efficacy (kill in %): 100%
Myzus persicae [3]
  efficacy in %: 90%

## Cc1cc(NC(=O)c2cccnc2)nn1Cn1nc(C2CC2)n(C2CC2)c1=O [Compound I-1-147]
[1]
  log P (acid): 1.45
Myzus persicae [2]; [4]
  efficacy (kill in %): 100%
Myzus persicae [2]; [5]
  efficacy (kill in %): 100%
Myzus persicae [3]
  efficacy in %: 100%

## Cc1cc(NC(=O)c2cccnc2)nn1Cn1c(C)nn(C)c1=O [Compound I-1-148]
[1]
  log P (acid): 0.74
Myzus persicae [2]; [4]
  efficacy (kill in %): 100%
Myzus persicae [2]; [5]
  efficacy (kill in %): 100%
Myzus persicae [3]
  efficacy in %: 90%

## Cc1cc(NC(=O)c2cccnc2)nn1CN1CCCNC1=O [Compound I-1-149]
[1]
  log P (acid): 0.62
Myzus persicae [2]; [4]
  efficacy (kill in %): 100%
Myzus persicae [2]; [5]
  efficacy (kill in %): 100%
Myzus persicae [3]
  efficacy in %: 90%

## Cc1cc(NC(=O)c2cccnc2)nn1Cc1nn(C)c(=O)n1C [Compound I-1-153]
[1]
  log P (acid): 0.62
Myzus persicae [2]; [4]
  efficacy (kill in %): 100%
Myzus persicae [2]; [5]
  efficacy (kill in %): 100%
Myzus persicae [3]
  efficacy in %: 100%

## Cc1cc(NC(=O)c2cccnc2)nn1Cc1cn2cc(C(F)(F)F)ccc2n1 [Compound I-1-155]
[1]
  log P (acid): 1.54
Myzus persicae [2]; [4]
  efficacy (kill in %): 100%
Myzus persicae [2]; [5]
  efficacy (kill in %): 100%
Myzus persicae [3]
  efficacy in %: 90%

## Cc1cc(NC(=O)c2cccnc2)nn1Cc1cc(C(=O)O)n(-c2ncccc2Cl)n1 [Compound I-1-156]
[1]
  log P (acid): 1.18
Myzus persicae [2]; [4]
  efficacy (kill in %): 100%
Myzus persicae [2]; [5]
  efficacy (kill in %): 100%
Myzus persicae [3]
  efficacy in %: 90%

## COCCNC(=O)n1nc(NC(=O)c2cccnc2)cc1C [Compound I-1-163]
[1]
  log P (acid): 1.22
Myzus persicae [2]; [4]
  efficacy (kill in %): 100%
Myzus persicae [2]; [5]
  efficacy (kill in %): 100%
Myzus persicae [3]
  efficacy in %: 100%

## Cc1cc(NC(=O)c2cccnc2)nn1C(=O)NCC1COC(C)(C)O1 (stereo not shown) [Compound I-1-164]
[1]
  log P (acid): 1.56
Myzus persicae [2]; [4]
  efficacy (kill in %): 100%
Myzus persicae [2]; [5]
  efficacy (kill in %): 100%
Myzus persicae [3]
  efficacy in %: 90%

## COCC(C)NC(=O)n1nc(NC(=O)c2cccnc2)cc1C (stereo not shown) [Compound I-1-166]
[1]
  log P (acid): 1.44
Myzus persicae [2]; [4]
  efficacy (kill in %): 100%
Myzus persicae [2]; [5]
  efficacy (kill in %): 100%
Myzus persicae [3]
  efficacy in %: 100%

## CSCCNC(=O)n1nc(NC(=O)c2cccnc2)cc1C [Compound I-1-167]
[1]
  log P (acid): 1.55
Myzus persicae [2]; [4]
  efficacy (kill in %): 100%
Myzus persicae [2]; [5]
  efficacy (kill in %): 100%
Myzus persicae [3]
  efficacy in %: 90%

## COCCN(CCOC)C(=O)n1nc(NC(=O)c2cccnc2)cc1C [Compound I-1-169]
[1]
  log P (acid): 1.91
Myzus persicae [2]; [4]
  efficacy (kill in %): 100%
Myzus persicae [2]; [5]
  efficacy (kill in %): 100%
Myzus persicae [3]
  efficacy in %: 100%

## CCOC(CNC(=O)n1nc(NC(=O)c2cccnc2)cc1C)OCC [Compound I-1-170]
[1]
  log P (acid): 1.88
Myzus persicae [2]; [4]
  efficacy (kill in %): 100%
Myzus persicae [2]; [5]
  efficacy (kill in %): 100%
Myzus persicae [3]
  efficacy in %: 90%

## Cc1cc(NC(=O)c2cccnc2)nn1C(=O)NCCOC(F)(F)F [Compound I-1-172]
[1]
  log P (acid): 1.91
Myzus persicae [2]; [4]
  efficacy (kill in %): 100%
Myzus persicae [2]; [5]
  efficacy (kill in %): 100%
Myzus persicae [3]
  efficacy in %: 90%

## COCCn1nc(NC(=O)c2cccnc2)cc1C [Compound I-1-173]
[1]
  log P (acid): 0.79
Myzus persicae [2]; [4]
  efficacy (kill in %): 80%
Myzus persicae [2]; [5]
  efficacy (kill in %): 80%
Myzus persicae [3]
  efficacy in %: 100%

## Cc1cc(NC(=O)c2cccnc2)nn1CC1CC1 [Compound I-1-174]
[1]
  log P (acid): 1.31
Myzus persicae [2]; [4]
  efficacy (kill in %): 100%
Myzus persicae [2]; [5]
  efficacy (kill in %): 100%
Myzus persicae [3]
  efficacy in %: 100%

## COCn1nc(NC(=O)c2cccnc2)cc1C [Compound I-1-175]
[1]
  log P (acid): 0.71
Myzus persicae [2]; [4]
  efficacy (kill in %): 100%
Myzus persicae [2]; [5]
  efficacy (kill in %): 100%
Myzus persicae [3]
  efficacy in %: 100%
